Read-outs that look alike come from different tables or passages of the source.
Tests used:
SpsB = target: T1, SpsB (Staphylococcus aureus, UniProt P0A070); assay: Inhibition of SpsB enzyme activity (fluorescence-based assay, bacterial membrane fraction); assay type: biochemical
T1 construct: using a bacterial membrane fraction as a source of SpsB; from tissue
T1 sequence (P0A070 1-191): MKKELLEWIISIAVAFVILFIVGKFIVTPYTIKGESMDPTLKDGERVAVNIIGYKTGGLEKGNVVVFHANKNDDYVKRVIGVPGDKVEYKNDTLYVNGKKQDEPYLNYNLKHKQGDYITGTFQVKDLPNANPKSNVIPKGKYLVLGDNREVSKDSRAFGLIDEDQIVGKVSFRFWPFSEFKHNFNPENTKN
Procedure: Signal peptidase enzyme activity was measured in a fluorescence-based assay using a bacterial membrane fraction as a source of SpsB (See Bruton et al., 2003, Eur J Med Chem 38:351-356). The SpsB substrate is a synthetic lipopeptide, decanoyl-K(DABCYL)-TPTAKA↓ASKKD-D(EDANS)—NH2 (prepared by JPT Peptide Technologies, Berlin, Germany). Assays were performed with 20 μM peptide substrate (Km≈5 μM) and reactions were initiated with enzyme addition (final protein concentration of 0.6 mg/mL). SpsB mediated cleavage of the peptide substrate was detected as an increase in fluorescence (excitation 340 nm/emission 460 nm).

[1] = test system: MB 5393 (COL), a methicillin-resistant S. aureus strain; assay: Determination of minimum and synergistic inhibitory concentration; assay type: cell-based; conditions: for SIC: presence of imipenem (4 μg/mL); for MIC: Staphylococcus aureus
Procedure: MB 5393 (COL), a methicillin-resistant S. aureus strain, was inoculated into Trypticase Soy Broth (TSB, BBL) and grown in a humidified incubator for 18 hours with rotary shaking at 220 rpm and kept on ice until used.
A quantity of imipenem (Merck Chemical Collection) was weighed out and dissolved into sterile 10 mM MOPS buffer at pH 7. This solution was diluted to 1600 μg/mL, 200 μg/mL, and 25 μg/mL and filter-sterilized through a 0.45 μm filter. From these solutions, seven 1:2 serial dilutions were prepared using sterile 10 mM MOPS buffer at pH 7. The final concentration ranges tested were 128 to 2 μg/mL, 16 to […], and 2 to 0.03 μg/mL. The solutions were kept refrigerated until used.
Test compounds (EXAMPLES 1-67) were prepared in sterile water or DMSO at a concentration of 3.2 mg/mL. From this solution, 11 serial 1:2 dilutions were prepared using sterile water. The final concentration range tested was 64 to 0.0313 μg/mL. The solutions were kept refrigerated until used.
Two-fold serial dilutions of test compounds were tested in the presence and absence of subinhibitory concentrations of imipenem (4 μg/mL) in 96-well U bottom microliter dishes in microbiological growth media. The plates were inoculated with bacterial cells to a final concentration of ˜5×10^5 CFU/mL. Test plates were incubated stationery at 37° C. for 22-24 hours.
After 22 hours of incubation, the Minimum inhibitory concentrations (MICs) were determined, defined as the lowest concentration of antibiotic that prevented all visible growth in the absence of imipenem. Synergistic inhibitory concentrations (SICs) were determined, defined as the lowest concentration of antibiotic that prevented all visible growth in the presence of imipenen.

[2] = MRSA COL, absence of imipenem, 22 hours, read-out: MIC

For `CCCc1ccc(-c2ccc(C(=O)NCCC(=O)N3CCC[C@H]3C(=O)N(C)[C@@H]3C(=O)N[C@@H](C)C(=O)N[C@H](C(=O)O)Cc4ccc(O)c(c4)-c4cc3ccc4O)cc2)cc1` [EXAMPLE 12, (8S,11S,14S)-3,18-dihydroxy-11-methyl-14-(methyl{[(2S)-1-(3-{[(4′-propylbiphenyl-4-yl)carbonyl]amino}propanoyl)pyrrolidin-2-yl]carbonyl}amino)-10,13-dioxo-9,12-diazatricyclo[13.3.1.1^2,6]icosa-1(19),2(20),3,5,15,17-hexaene-8-carboxylic acid], the IC50 (SpsB) was 10 to 50 nM, the SIC ([1]; MRSA COL, 22 hours) was “H (H: SIC 0.062-1)” and the MIC [1, 2] was over 8 µg/mL.
For `CCCc1ccc(-c2ccc(C(=O)NCCC(=O)N3CCC[C@@H]3C(=O)N(C)[C@@H]3C(=O)N[C@@H](C)C(=O)N[C@H](C(=O)O)Cc4ccc(OC)c(c4)-c4cc3ccc4OC)cc2)cc1` [EXAMPLE 13, (8S,11S,14S)-3,18-dimethoxy-11-methyl-14-(methyl{[(2R)-1-(3-{[(4′-propylbiphenyl-4-yl)carbonyl]amino}propanoyl)pyrrolidin-2-yl]carbonyl}amino)-10,13-dioxo-9,12-diazatricyclo[13.3.1.1^2,6]icosa-1(19),2(20),3,5,15,17-hexaene-8-carboxylic acid], the IC50 (SpsB) was over 50 nM, the SIC ([1]; MRSA COL, 22 hours) was “I (I: SIC >1)” and the MIC [1, 2] was over 8 µg/mL.
With `C[C@@H]1NC(=O)[C@@H](N(C)C(=O)[C@H](CCCCN)NC(=O)CCNC(=O)c2ccc(CCCCCCCCc3ccccc3)cc2)c2ccc(O)c(c2)-c2cc(ccc2O)C[C@@H](C(=O)O)NC1=O.O=C(O)C(F)(F)F` [EXAMPLE 15, (5S)-6-[[(7S,10S,13S)-13-carboxy-3,18-dihydroxy-10-methyl-8,11-dioxo-9,12-diazatricyclo[13.3.1.12,6]icosa-1(19),2(20),3,5,15,17-hexaen-7-yl](methyl)amino]-6-oxo-5-[(3-{[4-(8-phenyloctyl)benzoyl]amino}propanoyl)amino]hexan-1-aminium] the IC50 (SpsB) was under 10 nM, the SIC ([1]; MRSA COL, 22 hours) was “G (G: SIC <0.0625)” and the MIC [1, 2] was under 1 µg/mL.
In the case of `CCCCCCCCCc1ccc(-c2ccc(C(=O)NCCC(=O)N[C@@H](CCCCN)C(=O)N(C)[C@@H]3C(=O)N[C@@H](C)C(=O)N[C@H](C(=O)O)Cc4ccc(O)c(c4)-c4cc3ccc4O)cc2)cc1.O=C(O)C(F)(F)F` [EXAMPLE 16, (5S)-6-[[(7S,10S,13S)-13-carboxy-3,18-dihydroxy-10-methyl-8,11-dioxo-9,12-diazatricyclo[13.3.1.1^2,6]icosa-1(19),2(20),3,5,15,17-hexaen-7-yl](methyl)amino]-5-[(3-{[(4′-nonylbiphenyl-4-yl)carbonyl]amino}propanoyl)amino]-6-oxohexan-1-aminium trifluoroacetate], the IC50 (SpsB) is reported as under 10 nM, the SIC ([1]; MRSA COL, 22 hours) is reported as “G (G: SIC <0.0625)” and the MIC [1, 2] is reported as under 1 µg/mL.
`CCCCCCCCCCc1ccc2cc(C(=O)NCCC(=O)N[C@@H](CCCCN)C(=O)N(C)[C@@H]3C(=O)N[C@@H](C)C(=O)N[C@H](C(=O)O)Cc4ccc(O)c(c4)-c4cc3ccc4O)ccc2c1.O=C(O)C(F)(F)F` [EXAMPLE 17, (5S)-6-[[(7S,10S,13S)-13-carboxy-3,18-dihydroxy-10-methyl-8,11-dioxo-9,12-diazatricyclo[13.3.1.1^2,6]icosa-1(19),2(20),3,5,15,17-hexaen-7-yl](methyl)amino]-5-({3-[(6-decyl-2-naphthoyl)amino]propanoyl}amino)-6-oxohexan-1-aminium trifluoroacetate] was tested, and the IC50 (SpsB) was under 10 nM, the SIC ([1]; MRSA COL, 22 hours) was “G (G: SIC <0.0625)” and the MIC [1, 2] was under 1 µg/mL.
`CCCCCCCCCc1ccc(-c2ccc(C(=O)NCCC(=O)N3CCC[C@H]3C(=O)N(C)[C@@H]3C(=O)N[C@@H](C)C(=O)N[C@H](C(=O)O)Cc4ccc(O)c(c4)-c4cc3ccc4O)cc2)cc1` [EXAMPLE 18, (8S,11S,14S)-3,18-dihydroxy-11-methyl-14-(methyl{[(2)-1-(3-{[(4′-nonylbiphenyl-4-yl)carbonyl]amino}propanoyl)pyrrolidin-2-yl]carbonyl}amino)-10,13-dioxo-9,12-diazatricyclo[13.3.1.1^2,6]icosa-1(19),2(20),3,5,15,17-hexaene-8-carboxylic acid] was tested, and the IC50 (SpsB) was under 10 nM, the SIC ([1]; MRSA COL, 22 hours) was “H (H: SIC 0.062-1)” and the MIC [1, 2] was 1 to 8 µg/mL.
For `CCCCCCCCCc1ccc(-c2ccc(C(=O)NCCC(=O)N3CC[C@H]3C(=O)N(C)[C@@H]3C(=O)N[C@@H](C)C(=O)N[C@H](C(=O)O)Cc4ccc(O)c(c4)-c4cc3ccc4O)cc2)cc1` [EXAMPLE 19, (8S,11S,14S)-3,18-dihydroxy-11-methyl-14-(methyl{[(2)-1-(3-{[(4′-nonylbiphenyl-4-yl)carbonyl]amino}propanoyl)azetidin-2-yl]carbonyl}amino)-10,13-dioxo-9,12-diazatricyclo[13.3.1.1^2,6]icosa-1(19),2(20),3,5,15,17-hexaene-8-carboxylic acid], the IC50 (SpsB) was under 10 nM, the SIC ([1]; MRSA COL, 22 hours) was “G (G: SIC <0.0625)” and the MIC [1, 2] was 1 to 8 µg/mL.
`CCCCCCCCCCc1ccc2cc(C(=O)NCCC(=O)N3CC[C@H]3C(=O)N(C)[C@@H]3C(=O)N[C@@H](C)C(=O)N[C@H](C(=O)O)Cc4ccc(O)c(c4)-c4cc3ccc4O)ccc2c1` [EXAMPLE 20, (8S,11S,14S)-3,18-dihydroxy-11-methyl-14-(methyl[(2R)-1-{3-[(6-decyl-2-naphthoyl)amino]propanoylazetidin-2-yl]carbonyl}amino)-10,13-dioxo-9,12-diazatricyclo[13.3.1.1^2,6]icosa-1(19),2(20),3,5,15,17-hexaene-8-carboxylic acid] was tested, and the IC50 (SpsB) was under 10 nM, the SIC ([1]; MRSA COL, 22 hours) was “G (G: SIC <0.0625)” and the MIC [1, 2] was 1 to 8 µg/mL.
With `C[C@@H]1NC(=O)[C@@H](N(C)C(=O)[C@H](CCCCN)NC(=O)CCNC(=O)c2ccc(-c3ccc(C4C5CC6CC(C5)CC4C6)cc3)cc2)c2ccc(O)c(c2)-c2cc(ccc2O)C[C@@H](C(=O)O)NC1=O` (stereo partly drawn) [EXAMPLE 21] the IC50 (SpsB) was under 10 nM, the SIC ([1]; MRSA COL, 22 hours) was “G (G: SIC <0.0625)” and the MIC ([1]; MRSA, 22 h) was under 1 µg/mL.
For `CC(c1ccc(-c2ccc(C(=O)NCCC(=O)N[C@@H](CCCCN)C(=O)N(C)[C@@H]3C(=O)N[C@@H](C)C(=O)N[C@H](C(=O)O)Cc4ccc(O)c(c4)-c4cc3ccc4O)cc2)cc1)C12CC3CC(CC(C3)C1)C2` (stereo partly drawn) [EXAMPLE 22], the IC50 (SpsB) was under 10 nM, the SIC ([1]; MRSA COL, 22 hours) was “G (G: SIC <0.0625)” and the MIC ([1]; MRSA, 22 h) was under 1 µg/mL.
For `CCCCCCCCc1ccc(-c2ccc(C(=O)NCCC(=O)N[C@@H](CCCCN)C(=O)N(C)[C@@H]3C(=O)N[C@@H](C)C(=O)N[C@H](C(=O)O)Cc4ccc(O)c(c4)-c4cc3ccc4O)cc2)cc1` [EXAMPLE 23], the IC50 (SpsB) was under 10 nM, the SIC ([1]; MRSA COL, 22 hours) was “G (G: SIC <0.0625)” and the MIC ([1]; MRSA, 22 h) was under 1 µg/mL.
In the case of `CCCCCCCCCc1ccc(-c2ccc(C(=O)NCCC(=O)N[C@@H](CCCN)C(=O)N(C)C3C(=O)N[C@@H](C)C(=O)N[C@H](C(=O)O)Cc4ccc(O)c(c4)-c4cc3ccc4O)cc2)cc1` (stereo partly drawn) [EXAMPLE 24], the IC50 (SpsB) is reported as under 10 nM, the SIC ([1]; MRSA COL, 22 hours) is reported as “G (G: SIC <0.0625)” and the MIC ([1]; MRSA, 22 h) is reported as under 1 µg/mL.
`CC(C)CCCC(C)CCc1ccc(-c2ccc(C(=O)NCCC(=O)N[C@@H](CCCCN)C(=O)N(C)[C@@H]3C(=O)N[C@@H](C)C(=O)N[C@H](C(=O)O)Cc4ccc(O)c(c4)-c4cc3ccc4O)cc2)cc1` (stereo partly drawn) [EXAMPLE 25] was tested, and the IC50 (SpsB) was under 10 nM, the SIC ([1]; MRSA COL, 22 hours) was “G (G: SIC <0.0625)” and the MIC ([1]; MRSA, 22 h) was under 1 µg/mL.
For `CCCCCCCCCc1ccc(-c2ncc(C(=O)NCCC(=O)N[C@@H](CCCCN)C(=O)N(C)[C@@H]3C(=O)N[C@@H](C)C(=O)N[C@H](C(=O)O)Cc4ccc(O)c(c4)-c4cc3ccc4O)cn2)cc1` [EXAMPLE 26], the IC50 (SpsB) was under 10 nM, the SIC ([1]; MRSA COL, 22 hours) was “G (G: SIC <0.0625)” and the MIC ([1]; MRSA, 22 h) was under 1 µg/mL.
For `C[C@@H]1NC(=O)[C@@H](N(C)C(=O)[C@H](CCCCN)NC(=O)CCNC(=O)c2ccc(-c3ccc(CC4CCCCC4)cc3)cc2)c2ccc(O)c(c2)-c2cc(ccc2O)C[C@@H](C(=O)O)NC1=O` [EXAMPLE 27], the IC50 (SpsB) was under 10 nM, the SIC ([1]; MRSA COL, 22 hours) was “G (G: SIC <0.0625)” and the MIC ([1]; MRSA, 22 h) was under 1 µg/mL.
In the case of `CCCCCCCc1ccc(-c2ccc(C(=O)NCCC(=O)N[C@@H](CCCCN)C(=O)N(C)[C@@H]3C(=O)N[C@@H](C)C(=O)N[C@H](C(=O)O)Cc4ccc(O)c(c4)-c4cc3ccc4O)cc2)cc1` [EXAMPLE 29], the IC50 (SpsB) is reported as under 10 nM, the SIC ([1]; MRSA COL, 22 hours) is reported as “G (G: SIC <0.0625)” and the MIC ([1]; MRSA, 22 h) is reported as under 1 µg/mL.
For `CCCCCCc1ccc(-c2ccc(C(=O)NCCC(=O)N[C@@H](CCCCN)C(=O)N(C)[C@@H]3C(=O)N[C@@H](C)C(=O)N[C@H](C(=O)O)Cc4ccc(O)c(c4)-c4cc3ccc4O)cc2)cc1` [EXAMPLE 31], the IC50 (SpsB) was under 10 nM, the SIC ([1]; MRSA COL, 22 hours) was “G (G: SIC <0.0625)” and the MIC ([1]; MRSA, 22 h) was under 1 µg/mL.

— US20130244929A1 (priority 2010, published 2013)
